Test system: 624824-186-R-J2-PDC multicell spheroids, viability
Assay: Anticancer human tumor 624824-186-R-J2-PDC patient-derived colon adenocarcinoma cell line growth inhibition [PI3K]
Details: for IC50: curve of first compound; for viability, T/C: stronger effect = lower value; active = viability on the fitted dose curve at most 10% of control; inactive = the rest
Method in brief: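 Targeted small molecules plus PI3K inhibitors, half-log dose series from Cmax (default top 10 microM), were applied to heterotypic spheroids of cancer cells with HUVEC and MSCs. Viability indicated growth inhibition.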

[1] = second compound 0.0316 µM, first compound 0.0316 µM
[2] = second compound 0.0316 µM, first compound 0.1 µM
[3] = second compound 0.0316 µM, first compound 0.316 µM
[4] = second compound 0.0316 µM, first compound 1 µM
[5] = second compound 0.0316 µM, first compound 3.16 µM
[6] = second compound 0.0316 µM, first compound 10 µM
[7] = second compound 0.1 µM, first compound 0.0316 µM
[8] = second compound 0.1 µM, first compound 0.1 µM
[9] = second compound 0.1 µM, first compound 0.316 µM
[10] = second compound 0.1 µM, first compound 1 µM
[11] = second compound 0.1 µM, first compound 3.16 µM
[12] = second compound 0.1 µM, first compound 10 µM
[13] = second compound 0.316 µM, first compound 0.0316 µM
[14] = second compound 0.316 µM, first compound 0.1 µM
[15] = second compound 0.316 µM, first compound 0.316 µM
[16] = second compound 0.316 µM, first compound 1 µM
[17] = second compound 0.316 µM, first compound 3.16 µM
[18] = second compound 0.316 µM, first compound 10 µM
[19] = second compound 1 µM, first compound 0.0316 µM
[20] = second compound 1 µM, first compound 0.1 µM
[21] = second compound 1 µM, first compound 0.316 µM
[22] = second compound 1 µM, first compound 1 µM
[23] = second compound 1 µM, first compound 3.16 µM
[24] = second compound 1 µM, first compound 10 µM
[25] = second compound 3.16 µM, first compound 0.0316 µM
[26] = second compound 3.16 µM, first compound 0.1 µM
[27] = second compound 3.16 µM, first compound 0.316 µM
[28] = second compound 3.16 µM, first compound 1 µM
[29] = second compound 3.16 µM, first compound 3.16 µM
[30] = second compound 3.16 µM, first compound 10 µM
[31] = second compound 10 µM, first compound 0.0316 µM
[32] = second compound 10 µM, first compound 0.1 µM
[33] = second compound 10 µM, first compound 0.316 µM
[34] = second compound 10 µM, first compound 1 µM
[35] = second compound 10 µM, first compound 3.16 µM
[36] = second compound 10 µM, first compound 10 µM
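Note: spheroids exposed to agents for 7 days before viability read.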
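Throughout, for viability, T/C: 100% = DMSO vehicle treated spheroids.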

Cn1ncc(Cl)c1-c1cc(C(=O)NC(CN)Cc2cccc(F)c2)sc1Cl (stereo unspecified) + CC(Nc1ncnc2nc[nH]c12)c1cc2cccc(Cl)c2c(=O)n1-c1ccccc1
inactive: viability, T/C [1] 73.9% | viability, T/C [2] 85.7% | viability, T/C [3] 71.5% | viability, T/C [4] 68.3% | viability, T/C [5] 57.2% | viability, T/C [6] 55.1% | viability, T/C [7] 80.1% | viability, T/C [8] 67.8% | viability, T/C [9] 80.7% | viability, T/C [10] 73% | viability, T/C [11] 67.6% | viability, T/C [12] 49.2% | viability, T/C [13] 95.3% | viability, T/C [14] 86.4% | viability, T/C [15] 67% | viability, T/C [16] 69% | viability, T/C [17] 63.6% | viability, T/C [18] 47.8% | viability, T/C [19] 82.1% | viability, T/C [20] 95.8% | viability, T/C [21] 71% | viability, T/C [22] 78.2% | viability, T/C [23] 62.3% | viability, T/C [24] 44.2% | viability, T/C [25] 79.9% | viability, T/C [26] 91.6% | viability, T/C [27] 78.8% | viability, T/C [28] 70.2% | viability, T/C [29] 69.8% | viability, T/C [30] 50.6% | viability, T/C [31] 104% | viability, T/C [32] 73.2% | viability, T/C [33] 89.7% | viability, T/C [34] 68.7% | viability, T/C [35] 64.1% | viability, T/C [36] 47.1%
9.49 µM: IC50 (second compound 0.1 µM)
> 10 µM: IC50 (second compound 0.0316 µM) | IC50 (second compound 0.316 µM) | IC50 (second compound 3.16 µM)
7.07 µM: IC50 (second compound 1 µM)
9.26 µM: IC50 (second compound 10 µM)

Cn1nccc1Nc1nccc(-c2ccn(C(CO)c3ccc(Cl)c(F)c3)c(=O)c2)n1 (stereo unspecified) + CC(Nc1ncnc2nc[nH]c12)c1cc2cccc(Cl)c2c(=O)n1-c1ccccc1
inactive: viability, T/C [1] 73.9% | viability, T/C [2] 61.6% | viability, T/C [3] 72.4% | viability, T/C [4] 76.7% | viability, T/C [5] 87.6% | viability, T/C [6] 85.4% | viability, T/C [7] 110% | viability, T/C [8] 83.8% | viability, T/C [9] 78% | viability, T/C [10] 74.7% | viability, T/C [11] 82.4% | viability, T/C [12] 89.6% | viability, T/C [13] 90.7% | viability, T/C [14] 94% | viability, T/C [15] 59.5% | viability, T/C [16] 66.1% | viability, T/C [17] 82.1% | viability, T/C [18] 83.7% | viability, T/C [19] 96% | viability, T/C [20] 87.4% | viability, T/C [21] 67.8% | viability, T/C [22] 74.2% | viability, T/C [23] 80.3% | viability, T/C [24] 79.7% | viability, T/C [25] 106% | viability, T/C [26] 70.2% | viability, T/C [27] 61.9% | viability, T/C [28] 77.7% | viability, T/C [29] 75.5% | viability, T/C [30] 63.7% | viability, T/C [31] 82.1% | viability, T/C [32] 90.2% | viability, T/C [33] 85.9% | viability, T/C [34] 70.8% | viability, T/C [35] 67.8% | viability, T/C [36] 61%
> 10 µM: IC50 (second compound 0.0316 µM) | IC50 (second compound 0.1 µM) | IC50 (second compound 0.316 µM) | IC50 (second compound 1 µM) | IC50 (second compound 3.16 µM) | IC50 (second compound 10 µM)

Cn1ncnc1[C@H]1c2n[nH]c(=O)c3cc(F)cc(c23)N[C@@H]1c1ccc(F)cc1 + CC(Nc1ncnc2nc[nH]c12)c1cc2cccc(Cl)c2c(=O)n1-c1ccccc1
inactive: viability, T/C (second compound 0.0316 µM, first compound 0.000316 µM) 82.5% | viability, T/C (second compound 0.0316 µM, first compound 0.001 µM) 85.3% | viability, T/C (second compound 0.0316 µM, first compound 0.00316 µM) 87.6% | viability, T/C (second compound 0.0316 µM, first compound 0.01 µM) 89% | viability, T/C [1] 75.7% | viability, T/C [2] 86% | viability, T/C (second compound 0.1 µM, first compound 0.000316 µM) 94.6% | viability, T/C (second compound 0.1 µM, first compound 0.001 µM) 85% | viability, T/C (second compound 0.1 µM, first compound 0.00316 µM) 89.5% | viability, T/C (second compound 0.1 µM, first compound 0.01 µM) 94.1% | viability, T/C [7] 82.8% | viability, T/C [8] 103% | viability, T/C (second compound 0.316 µM, first compound 0.000316 µM) 115% | viability, T/C (second compound 0.316 µM, first compound 0.001 µM) 102% | viability, T/C (second compound 0.316 µM, first compound 0.00316 µM) 96.5% | viability, T/C (second compound 0.316 µM, first compound 0.01 µM) 87.5% | viability, T/C [13] 110% | viability, T/C [14] 86.2% | viability, T/C (second compound 1 µM, first compound 0.000316 µM) 72.6% | viability, T/C (second compound 1 µM, first compound 0.001 µM) 90.8% | viability, T/C (second compound 1 µM, first compound 0.00316 µM) 81.7% | viability, T/C (second compound 1 µM, first compound 0.01 µM) 89.4% | viability, T/C [19] 81.4% | viability, T/C [20] 97.8% | viability, T/C (second compound 3.16 µM, first compound 0.000316 µM) 91.1% | viability, T/C (second compound 3.16 µM, first compound 0.001 µM) 94% | viability, T/C (second compound 3.16 µM, first compound 0.00316 µM) 94.2% | viability, T/C (second compound 3.16 µM, first compound 0.01 µM) 92.1% | viability, T/C [25] 83.5% | viability, T/C [26] 78.1% | viability, T/C (second compound 10 µM, first compound 0.000316 µM) 88.5% | viability, T/C (second compound 10 µM, first compound 0.001 µM) 85.6% | viability, T/C (second compound 10 µM, first compound 0.00316 µM) 106% | viability, T/C (second compound 10 µM, first compound 0.01 µM) 106% | viability, T/C [31] 100% | viability, T/C [32] 88.4%
> 0.1 µM: IC50 (second compound 0.0316 µM) | IC50 (second compound 0.1 µM) | IC50 (second compound 0.316 µM) | IC50 (second compound 1 µM) | IC50 (second compound 3.16 µM) | IC50 (second compound 10 µM)

Reference: PubChem BioAssay AID1963975 (Molecular Pharmacology Branch, DTP, NCI, 2024)
